From patent US20260176320A1, “MODULATORS OF G-PROTEIN COUPLED RECEPTORS” (priority 2018, published 2026)
Like-named read-outs stand apart in the source and are kept apart here.

Experiments:
Assay type in all cases: cell-based
GLP-1R [1] = biological target: T1, GLP-1R (Homo sapiens, UniProt P43220); experiment: PathHunter β-arrestin assay
Summary of the method: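 Following a 90 min agonist exposure at 37 °C in 0.2% BSA medium, β-arrestin coupling was detected by chemiluminescence after 3 h at room temperature.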

GIP-R = biological target: T2, GIP-R (Homo sapiens, UniProt P48546); experiment: HitHunter cAMP assay (GIP-R); settings: cAMP; for EC50: EC50 GIP-R/nM; for Emax: read-out: (Emax) GIP-R
T2 sequence (P48546 22-466): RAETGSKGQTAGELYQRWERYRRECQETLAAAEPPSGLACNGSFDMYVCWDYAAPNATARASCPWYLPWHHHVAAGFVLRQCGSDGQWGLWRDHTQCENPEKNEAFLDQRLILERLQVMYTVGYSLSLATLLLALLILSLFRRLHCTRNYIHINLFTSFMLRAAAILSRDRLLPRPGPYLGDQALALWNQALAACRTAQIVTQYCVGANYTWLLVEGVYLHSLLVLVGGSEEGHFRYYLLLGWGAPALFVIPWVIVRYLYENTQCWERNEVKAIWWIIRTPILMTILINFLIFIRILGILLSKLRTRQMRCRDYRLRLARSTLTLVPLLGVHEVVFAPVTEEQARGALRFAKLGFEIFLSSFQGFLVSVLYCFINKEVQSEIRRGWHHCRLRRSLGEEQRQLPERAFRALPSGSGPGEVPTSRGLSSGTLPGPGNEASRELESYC
Summary of the method: (§1)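 Duplicate 22-point, 2-fold agonist titrations applied to receptor-expressing suspension cells in IBMX-containing HBSS; 30 min RT stimulation. Read: luminescent cAMP immunocompetition after O/N dark incubation.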

GLP-1R [2] = biological target: T1, GLP-1R; experiment: HitHunter cAMP assay (GLP-1R); settings: cAMP; for EC50: EC50 GLP-1R/nM; for Emax: read-out: (Emax) GLP-1R
Summary of the method: as §1

T1 sequence (P43220 24-463): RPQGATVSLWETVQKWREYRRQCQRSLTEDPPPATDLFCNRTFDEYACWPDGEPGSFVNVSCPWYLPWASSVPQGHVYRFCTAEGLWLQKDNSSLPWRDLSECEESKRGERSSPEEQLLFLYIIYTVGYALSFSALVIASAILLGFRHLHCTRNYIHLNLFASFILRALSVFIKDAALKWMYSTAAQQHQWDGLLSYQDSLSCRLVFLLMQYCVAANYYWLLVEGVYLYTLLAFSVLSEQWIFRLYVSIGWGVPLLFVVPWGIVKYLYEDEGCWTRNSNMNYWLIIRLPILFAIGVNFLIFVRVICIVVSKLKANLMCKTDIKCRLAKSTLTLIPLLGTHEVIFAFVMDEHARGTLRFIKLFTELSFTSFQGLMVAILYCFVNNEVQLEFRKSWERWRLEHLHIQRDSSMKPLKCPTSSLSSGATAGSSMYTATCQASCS

SMILES	EC50 (GLP-1R [1]) [nM]	EC50 (GIP-R; Table 3) [nM]	EC50 (GIP-R; Table 3A) [nM]	Emax (GIP-R; Table 3) [%]	Emax (GIP-R; Table 3A) [%]	EC50 (GLP-1R [2]; Table 3) [nM]	EC50 (GLP-1R [2]; Table 3A) [nM]	Emax (GLP-1R [2]; Table 3) [%]	Emax (GLP-1R [2]; Table 3A) [%]
CC[C@H](C)[C@H](NC(=O)[C@H](CO)NC(=O)[C@H](Cc1ccc(O)cc1)NC(=O)[C@H](CC(=O)O)NC(=O)[C@H](CO)NC(=O)[C@@H](NC(=O)[C@H](Cc1ccccc1)NC(=O)[C@@H](NC(=O)CNC(=O)[C@H](CCC(=O)O)NC(=O)CSCC(=O)NCCN1C(=O)c2cc3ccccc3cc2C1=O)[C@@H](C)O)[C@@H](C)O)C(=O)N[C@@H](Cc1ccc(O)cc1)C(=O)N[C@@H](CC(C)C)C(=O)N[C@@H](CC(=O)O)C(=O)N[C@@H](CCCCN)C(=O)N[C@@H](CCC(N)=O)C(=O)N[C@@H](C)C(=O)N[C@@H](C)C(=O)NC(C)(C)C(=O)N[C@@H](CCC(=O)O)C(=O)N[C@@H](Cc1ccccc1)C(=O)N[C@H](C(=O)N[C@@H](CC(N)=O)C(=O)N[C@@H](Cc1c[nH]c2ccccc12)C(=O)N[C@@H](CC(C)C)C(=O)N[C@@H](CC(C)C)C(=O)N[C@@H](C)C(=O)NCC(=O)NCC(=O)N1CCC[C@H]1C(=O)N[C@@H](CO)C(=O)N[C@@H](CO)C(=O)NCC(=O)N[C@@H](C)C(=O)N1CCC[C@H]1C(=O)N1CCC[C@H]1C(=O)N1CCC[C@H]1C(=O)N[C@@H](CO)C(=O)N[C@@H](CCCCN)C(N)=O)C(C)C [Compound 163]	> 1000	< 0.1	< 0.1	106	106	10 to 100	10 to 100	73	73
CC[C@H](C)[C@H](NC(=O)[C@H](CO)NC(=O)[C@H](Cc1ccc(O)cc1)NC(=O)[C@H](CC(=O)O)NC(=O)[C@H](CO)NC(=O)[C@@H](NC(=O)[C@H](Cc1ccccc1)NC(=O)[C@@H](NC(=O)CNC(=O)[C@H](CCC(=O)O)NC(=O)CSCC(=O)NCCN1C(=O)c2ccc(C(C)(C)C)cc2C1=O)[C@@H](C)O)[C@@H](C)O)C(=O)N[C@@H](Cc1ccc(O)cc1)C(=O)N[C@@H](CC(C)C)C(=O)N[C@@H](CC(=O)O)C(=O)N[C@@H](CCCCN)C(=O)N[C@@H](CCC(N)=O)C(=O)N[C@@H](C)C(=O)N[C@@H](C)C(=O)NC(C)(C)C(=O)N[C@@H](CCC(=O)O)C(=O)N[C@@H](Cc1ccccc1)C(=O)N[C@H](C(=O)N[C@@H](CC(N)=O)C(=O)N[C@@H](Cc1c[nH]c2ccccc12)C(=O)N[C@@H](CC(C)C)C(=O)N[C@@H](CC(C)C)C(=O)N[C@@H](C)C(=O)NCC(=O)NCC(=O)N1CCC[C@H]1C(=O)N[C@@H](CO)C(=O)N[C@@H](CO)C(=O)NCC(=O)N[C@@H](C)C(=O)N1CCC[C@H]1C(=O)N1CCC[C@H]1C(=O)N1CCC[C@H]1C(=O)N[C@@H](CO)C(=O)N[C@@H](CCCCN)C(N)=O)C(C)C [Compound 164]	> 1000	10 to 100	10 to 100	99 to 105	99 to 105	10 to 100	10 to 100	68	68
